Source: ChEMBL document CHEMBL3507680, “University of Dundee, Gates Library screen for HepG2 cell viability”

Assay: Human HepG2 cell viability assay in 384 well format
Format: toxicity, cell-based
Set-up: dose 125 nL, time 70.5 hour; cytotoxicity at 70.5 h: concentration not given beside the values
Settings: HepG2 cells, read-out: Inhibition

Compound	cytotoxicity at 70.5 h [%]
Cc1oc(-c2ccsc2)nc1CC(=O)NCCCS(C)(=O)=O	15.4
Cc1oc(-c2ccsc2)nc1CC(=O)NCC(=O)Nc1cn[nH]c1	-13
Cc1cccc(-c2nc(CN3CC(n4nc(C)cc4C)C3)no2)c1	-4.09
CN(Cc1noc(C(C)(C)C)n1)Cc1ccccc1N1CCCC1	-8.02
Cn1nc2c(cc1=O)CN(Cc1nc(N)c3ccccc3n1)CC2	7.46
CCNC(=O)CCCC(=O)N1CCc2cc(Cl)cc(Cl)c2C1	-4.11
O=C(CCc1ccncc1)N1CCc2cc(Cl)cc(Cl)c2C1	17.4
Cc1noc(CN(Cc2cccs2)C2CC2)n1	17.3
COCCc1noc(CN2CCCC2c2noc(C(C)C)n2)n1 (centres undefined)	17.1
Cc1nn(C)c(N(C)C)c1CNCC(O)COc1cccc(F)c1 (centres undefined)	-11.4
Cc1cnn(CCNCC(O)c2ccc(F)c(F)c2)c1 (centres undefined)	3.17
Cc1cc(NC(=O)c2ccccc2Br)n(C)n1	2.28
COC(=O)c1cc(OC)c(OC)cc1NCc1c(C)noc1C	-2.42
O=c1[nH]ncc(NCCOc2ccc3c(c2)OCO3)c1Cl	-8.71
Cc1cc(NC(=O)c2ccc(Br)cc2F)n(C)n1	12.5
O=c1[nH]ncc(NCCOc2ccc3c(c2)CCC3)c1Cl	-11.7
CN(CC(=O)Nc1cc(CC2CCCCC2)n[nH]1)S(C)(=O)=O	-4.16
c1ccc(-c2cc(CN3CCc4cncnc4C3)on2)cc1	-4.72
Cc1ccc(-c2cc(CN3CCc4cnc(C)nc4C3)on2)cc1	-10.1
Cc1cnn(CCNCc2ccc(S(C)(=O)=O)cc2)c1	-4.97
Cc1cnn(CCNCC(O)c2cccc(Br)c2)c1 (centres undefined)	-8.97
Cc1c(Br)cccc1S(=O)(=O)NCc1ccnn1C	-3.27
COCCCNS(=O)(=O)c1cc(C)sc1C	-6.05
Cc1ccc(CN(C)C(=O)c2cccc(NC(N)=O)c2)o1	-11.5

Compound	cytotoxicity at 70.5 h [%]
COc1ccc(C(C)NC(=O)Nc2nccs2)cc1OC (centres undefined)	-8.99
Cc1ccc(CN(C(=O)c2cccc(NC(N)=O)c2)C2CC2)o1	-10.5
CC(C)N(C)C(=O)c1ccc(Cl)c(NC(=O)C2CCC2)c1	19.4
CNC(=O)NC(=O)CCSc1ccccc1C	-0.594
CN1CCC(NC(=O)Cc2csc(C(C)(C)C)n2)CC1	-10.5
CC(C)N(C)C(=O)c1ccc(Cl)c(NC(=O)COCC2CC2)c1	-6.46
O=C(Nc1cc(-c2ccccc2)on1)N1CC[C@H](O)C1	-1.65
CCc1noc(CC)c1CC(=O)N1CCN(C(=O)C2CCCC2)CC1	-9.43
CCc1noc(CC)c1CC(=O)N1CCN(C(C#N)C(C)C)CC1 (centres undefined)	-8.63
NC(=O)CCSCc1cc(Br)cc2cccnc12	10.9
CCCNC(=O)C(C)Nc1ccc(COCC)cc1 (centres undefined)	-0.943
Cc1nc(CNC(=O)Nc2ccc3c(ccn3CCN(C)C)c2)no1	-2.87
NC(=O)NC(=O)CCSc1ccccc1Cl	-17.5
CC(SCCS(C)(=O)=O)c1nc(Cc2ccccc2)no1 (centres undefined)	-7.83
CCc1noc(CC)c1CC(=O)N1CCCC(N2CCCCC2)C1 (centres undefined)	-8.14
CCS(=O)(=O)c1nccn1-c1cccc(F)c1	-9.95
CCN(CCc1nccs1)C(=O)c1ccco1	-7.04
CN(CCCc1ccc(C(F)(F)F)cc1)Cc1nccn1C	-12
CCC1CN(CC(=O)NCC(C)C)CCO1 (centres undefined)	-10.6
CCOCCN1CCc2cncnc2C1	27.9
Cc1noc(C2CCCN(CC(=O)N3CCNC(=O)C3)C2)n1 (centres undefined)	-4.79
CCc1noc(CCCC(=O)Nc2cc(C(F)(F)F)c[nH]c2=O)n1	0.169
CC(C)c1noc(CCC(=O)Nc2cc(C(F)(F)F)c[nH]c2=O)n1	-3.33
Cn1cc(C(=O)N(Cc2ccco2)Cc2cccs2)ccc1=O	-8.8

Compound	cytotoxicity at 70.5 h [%]
COc1ccc(CC(=O)N2CCC(c3n[nH]c(C4CC4)n3)CC2)cc1	2.82
COc1ccc(C(=O)NCCCNc2ncccn2)c(OC)c1	-7.46
NC(=O)C1=NC2=NS(=O)(=O)c3ccccc3N2N1Cc1ccc(Br)cc1	-7.39
Cc1ccc(CNC(=O)c2c[nH]nc2NC(=O)COCC2CC2)cc1	-3.76
Cc1ccc(CNC(=O)c2c[nH]nc2NC(=O)C2CCC2)cc1	-7.26
CCOc1ccc(NC2CCN(C)C2=O)cn1 (centres undefined)	-3.61
CCC(C)Oc1cc(C(=O)Nc2nc(C)ns2)ccn1 (centres undefined)	-0.392
CCCc1nnc(NCc2ccc(OC)c(C#N)c2)o1	20.2
CC(C)OCc1cccc(NC(=O)N(C)Cc2ncnn2C)c1	-9.1
CCSCc1cccc(NC(=O)N(C)Cc2ncnn2C)c1	-3.07
CC(C)Nc1cccc(CNC(=O)N2CCC[C@@H]2CO)c1	-2.37
CCN(C(=O)NCc1ncc(C)c(OC)c1C)C(C)c1cccnc1 (centres undefined)	-9.02
OC(COCc1cccs1)CSc1nnc2ccccn12 (centres undefined)	22.9
CC(=O)N(CCc1ccccc1)CC(=O)NC1(C#N)CC1	-0.397
Cc1cc(S(=O)(=O)Nc2onc(C)c2C)c(C)s1	-3.24
CCN1CCN(C(=O)NCc2cccc(-c3cnn(C)c3)c2)CC1	-2.59
Cc1nc(C2CCCN2C(=O)c2ccc(=O)n(C)n2)no1 (centres undefined)	-5.27
c1cncc(CN2CCC(NCCc3ccc4c(c3)OCO4)CC2)c1	0.189
Cc1ccsc1CN(C)C(=O)C1CCCN(C(N)=O)C1 (centres undefined)	-8.56
Cc1cccc(C(C)(C)CNc2cn[nH]c(=O)c2Cl)c1	18.4
CC(C)(CNc1cn[nH]c(=O)c1Cl)c1ccc2c(c1)OCO2	-13.4
CC(C)c1ccc(O)c(C(=O)NC2CCN(c3ncccn3)CC2)c1	-19.5
CN(C(=O)CN1CCC(c2cc3ccccc3[nH]2)CC1)C1CC1	-8.97
CN(C)C(=O)CN1CCN(C(=O)C2CSc3ccccc3O2)CC1 (centres undefined)	-16.2

Compound	cytotoxicity at 70.5 h [%]
CCOC(C(=O)N1CCn2c(C)nnc2C1)c1ccccc1 (centres undefined)	-11.7
Cc1nnc2n1CCN(C(=O)C(OC1CCCC1)c1ccccc1)C2 (centres undefined)	-1.74
CC(C)(O)CN1CCN(C(=O)C2CSc3ccccc3O2)CC1 (centres undefined)	-14.7
Cc1noc(C2CCN(C(C)c3nc(C(C)(C)C)no3)CC2)n1 (centres undefined)	-14.9
CC(C)NC(=O)C1CCN(Cn2ccc(-c3ccc(F)cc3)n2)CC1	4
N#CCCN(c1ccc(F)cc1)S(=O)(=O)CC1CCCCO1 (centres undefined)	-1.6
Cc1cccc(-c2c[nH]c(C3CCCN3C(=O)Cn3cc(C)cn3)n2)c1 (centres undefined)	6.62
N#CCCN(c1ccccc1)S(=O)(=O)CC1CCCCO1 (centres undefined)	-9.85
CCC(NC(=O)c1ccc2[nH]ccc2c1)C(=O)N1CCOCC1 (centres undefined)	6.49
O=C(NC1CCN(c2ncccn2)CC1)c1cc2c(cc1O)CCCC2	6.37
CC1CN(C(=O)c2cc[nH]c(=O)c2)c2ccccc21 (centres undefined)	-12.3
CCCNC(=O)CCc1ccnc2ccccc12	-14
CCOC(C)c1nc(Cn2cc(C)cn2)cs1 (centres undefined)	9.54
CCOC(C)c1nc(Cn2cccn2)cs1 (centres undefined)	-8.39
CCOC(C)c1nc(Cn2cc(-n3cccc3)cn2)cs1 (centres undefined)	-10.1
CC(CN(C)C(=O)c1cn(C)nc1-c1ccc(F)cc1F)C(=O)O (centres undefined)	-1.61
CC(=O)N1CCC(NS(=O)(=O)c2cccnc2)CC1	8
Cc1ccc(OCC(O)CN(C)CC(=O)Nc2cc(C)on2)c(C)c1 (centres undefined)	10.1
COCC(C)N(C)C(=O)NC1CCN(c2ncccn2)CC1 (centres undefined)	7.61
Cc1ccc2cc(C(=O)NCCN3CCS(=O)(=O)CC3)c(C)nc2c1	-15.9
CN(C)C(=O)CCCS(=O)(=O)Cc1cc(Cl)c2c(c1)OCCO2	-4.96
CCOCCNC(=O)C(CCSC)NC(=O)c1ccc2ccccc2n1 (centres undefined)	5.06
CSCCC(NC(=O)c1ccc2ccccc2n1)C(=O)NC1CC1 (centres undefined)	-8.01
COc1ccnc(NC2CCN(CC(=O)N3CCCC3)CC2)n1	-4.69

Compound	cytotoxicity at 70.5 h [%]
Cc1ccc(OCC(O)CN(C)CC(=O)NC(C)C)c(C)c1 (centres undefined)	3.84
O=C(CN1CCC(Nc2ncccn2)CC1)Nc1ccccc1	-5.9
Cn1cc(C(=O)OCC(N)=O)c(-c2ccc(F)cc2F)n1	-7.24
O=C1CCN(C(=O)CCc2cc(Br)cs2)CCN1	-10.5
CN(C)C1CCN(C(=O)CCc2cc(Br)cs2)CC1	-0.796
Cc1nccn1-c1ccc(CNC(=O)c2ccc[nH]2)cn1	-6.51
CN(C)c1nccc(N(C)C2CCOCC2)n1	-2.99
CS(=O)(=O)CCCNC1(c2cccc(Cl)c2)CCCC1	-5.23
Cc1nnc(SCCC(=O)N(C)Cc2ccc(F)cc2F)[nH]1	4.62
Cc1nnc(SCCC(=O)N(C)Cc2ccc(F)cc2Cl)[nH]1	-4.47
CCCc1nc(C(C)(C)NC(=O)c2ccnn2C)no1	-2.57
CCN(Cc1csc(CS(C)(=O)=O)n1)c1cccc(CO)c1	-6.41
CS(=O)(=O)CCCNC1(c2cccc(F)c2)CC1	-7.6
CC(c1ccccc1)N(C)C(=O)CNCCn1cccn1 (centres undefined)	-10.3
CN(C)c1cc(CNC(=O)NCC2(C)CCCS2)ccn1 (centres undefined)	10.1
O=C(Nc1ccnn1Cc1ccc(Cl)cc1)C1CCS(=O)(=O)C1 (centres undefined)	-8.12
CS(=O)(=O)c1ccc(NCCC2CCCO2)c(S(C)(=O)=O)c1 (centres undefined)	-16.8
CSCC(=O)NS(=O)(=O)c1ccc(C#N)c(C(F)(F)F)c1	-8.4
CS(=O)(=O)c1cc(S(N)(=O)=O)ccc1NCC1CCCO1 (centres undefined)	-3.22
COc1ccccc1C(C)NC(=O)NCCC(=O)NC1CCCCC1 (centres undefined)	-16.1
N#Cc1c(F)cccc1N1CCCC(C(=O)Nc2nccs2)C1 (centres undefined)	-19.5
CC(=O)N1CCC(NC(=O)c2ccc3c(c2O)OC(C)(C)C3)CC1	-12.2
CCCNC(=O)NC(=O)CNc1c(F)cccc1N1CCCC1	-17.8
